Biological target: T1, PFKFB3 (Homo sapiens, UniProt Q16875)
T1 construct: GST (cleaved yes); host or cells: Rosetta cells (bacteria)
Assay: PFK-2 kinase activity assay (coupled PPi-PFK assay), recombinant PFKFB3
Assay type: biochemical
Conditions: recombinant PFKFB3, concentration course
Description: Recombinant Protein Expression: PFKFB2, PFKFB1, and PFKFB3 constructs (Origene) were subcloned into GST expression vector. Mutation of PFKFB2 at K174 to G [3], H259 to A [4], and the double mutant were created using Quickchange methodology. All constructs were transformed into Rosetta cells (Milipore), expressed and induced following standard protocol. Bacteria were harvested via centrifugation and pellets resuspended in 10 mL sonication buffer (50 mM TrisHCl pH 7.5, 10% glycerol, 150 mM NaCl, 10 mM Imidazole, 10 uL 1M DTT, and 1 protease inhibitor tablet). Cells were sonicated (power lvl 5, 45 s, 4×, QSonica) at 4° C. and spun 10 krpm for 10 min at 4° C. to collect protein lysate. […] Protein concentration was determined by Nanodrop (Thermo).
The resultant F-2,6-BP levels were determined by pyrophosphate-fructose-6-phosphate phosphotransferase (PPi-PFK) activity. After the preincubation phase, the F-2,6-BP/PFK2 mixture was diluted 10× by 50 mM pH 8.0 Tris assay buffer, supplemented with 5 mM Mg^2+, 0.5 mM PPi and 1 mM F-6-P. The PPi-PFK activity was measured as the rate of NADH oxidation (ε340=6200 M^−1 cm^−1) following the addition of 150 μM NADH to a mixture of excess PPi-PFK, 0.1 μg/mL triosephosphate isomerase, 10 μg/mL glycerol-3-phosphate dehydrogenase, and 0.01 U/mL aldolase. […]

T1 sequence (Q16875 whole entry, species assumed): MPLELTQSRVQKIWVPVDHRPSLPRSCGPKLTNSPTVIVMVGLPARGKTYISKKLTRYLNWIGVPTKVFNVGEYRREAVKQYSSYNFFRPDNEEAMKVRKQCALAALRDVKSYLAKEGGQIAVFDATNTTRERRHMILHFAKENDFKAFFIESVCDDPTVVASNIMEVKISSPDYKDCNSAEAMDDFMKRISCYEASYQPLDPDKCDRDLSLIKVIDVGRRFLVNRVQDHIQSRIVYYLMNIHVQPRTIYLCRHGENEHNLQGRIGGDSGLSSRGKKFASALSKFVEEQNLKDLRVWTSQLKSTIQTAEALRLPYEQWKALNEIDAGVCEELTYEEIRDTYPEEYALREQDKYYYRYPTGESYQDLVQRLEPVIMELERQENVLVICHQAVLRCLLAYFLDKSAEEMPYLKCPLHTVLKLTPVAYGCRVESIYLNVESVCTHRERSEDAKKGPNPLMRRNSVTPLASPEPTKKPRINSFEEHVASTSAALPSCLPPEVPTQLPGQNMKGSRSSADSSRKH

Compound | IC50
O=C(/C=C/c1ccc2ccc(C(F)(F)F)cc2n1)c1ccncc1 [PFK158] | 8.94 µM
COc1ccccc1Nc1nnc(S)s1 [B2, 5-[(2-methoxyphenyl)amino]-1,3,4-thiadiazole-2-thiol] | 11.9 µM
